Publication PMC11822212, “High-throughput screening identifies Aurora kinase B as a critical therapeutic target for Merkel cell carcinoma” (Nature Communications, 2025)
Where two headings read alike, the source gives them in different places.

Columns and labels:
Assay in all cases: qHTS cell viability (CellTiter-Glo, 72 h; primary and follow-up small molecule screen)
Type in all cases: cell-based, human
UISO cells (VN-MCC) = tested on: UISO cells (VN-MCC)
MKL-1 cells (VP-MCC) = tested on: MKL-1 cells (VP-MCC)
MKL-2 cells (VP-MCC) = tested on: MKL-2 cells (VP-MCC)
MCC26 cells (VN-MCC) = tested on: MCC26 cells (VN-MCC)
MCC13 cells (VN-MCC) = tested on: MCC13 cells (VN-MCC)
WAGA cells (VP-MCC) = tested on: WAGA cells (VP-MCC)
[1] = follow-up screen, UISO, replicate 1
[2] = follow-up screen, UISO, replicate 2
[3] = follow-up screen, UISO, replicate 3
[4] = follow-up screen, MKL-1, replicate 1
[5] = follow-up screen, MKL-1, replicate 2
[6] = follow-up screen, MKL-1, replicate 3
[7] = follow-up screen, MKL-2, replicate 1
[8] = follow-up screen, MKL-2, replicate 2
[9] = follow-up screen, MKL-2, replicate 3
[10] = follow-up screen, MCC26, replicate 1
[11] = follow-up screen, MCC26, replicate 2
[12] = follow-up screen, MCC26, replicate 3
[13] = follow-up screen, MCC13, replicate 1
[14] = follow-up screen, MCC13, replicate 2
[15] = follow-up screen, MCC13, replicate 3
[16] = follow-up screen, WAGA, replicate 1
[17] = follow-up screen, WAGA, replicate 2
[18] = follow-up screen, WAGA, replicate 3

Compound	Area under the dose-response curve (AUC) UISO Replicate 1 (UISO cells (VN-MCC))	Area under the dose-response curve (AUC) UISO Replicate 2 (UISO cells (VN-MCC))	Area under the dose-response curve (AUC) UISO Replicate 3 (UISO cells (VN-MCC))	Area under the dose-response curve (AUC) MKL-1 Replicate 1 (MKL-1 cells (VP-MCC))	Area under the dose-response curve (AUC) MKL-1 Replicate 2 (MKL-1 cells (VP-MCC))	Area under the dose-response curve (AUC) MKL-1 Replicate 3 (MKL-1 cells (VP-MCC))	Area under the dose-response curve (AUC) MKL-2 Replicate 1 (MKL-2 cells (VP-MCC))	Area under the dose-response curve (AUC) MKL-2 Replicate 2 (MKL-2 cells (VP-MCC))	Area under the dose-response curve (AUC) MKL-2 Replicate 3 (MKL-2 cells (VP-MCC))	Area under the dose-response curve (AUC) MCC26 Replicate 1 (MCC26 cells (VN-MCC))	Area under the dose-response curve (AUC) MCC26 Replicate 2 (MCC26 cells (VN-MCC))	Area under the dose-response curve (AUC) MCC26 Replicate 3 (MCC26 cells (VN-MCC))	Area under the dose-response curve (AUC) MCC13 Replicate 1 (MCC13 cells (VN-MCC))	Area under the dose-response curve (AUC) MCC13 Replicate 2 (MCC13 cells (VN-MCC))	Area under the dose-response curve (AUC) MCC13 Replicate 3 (MCC13 cells (VN-MCC))	Area under the dose-response curve (AUC) WAGA Replicate 1 (WAGA cells (VP-MCC))	Area under the dose-response curve (AUC) WAGA Replicate 2 (WAGA cells (VP-MCC))	Area under the dose-response curve (AUC) WAGA Replicate 3 (WAGA cells (VP-MCC))	Area under the dose-response curve (AUC) UISO Replicate 1 (UISO cells (VN-MCC); [1])	Area under the dose-response curve (AUC) UISO Replicate 2 (UISO cells (VN-MCC); [2])	further results
Phenylmercuric acetate	343.0	369.6	334.3	287.3	286.9	280.4	295.2	271.6	292.7	356.5	359.6	374.3	405.8	369.3	386.0	330.3	317.4	331.4	–	–	–
COc1ccc(OC)c(-c2nnc3ccc(-c4ccc(OC)c(O[C@@H]5CCOC5)c4)nn23)c1 [NCGC00168459-01]	–	–	–	–	–	–	–	–	–	–	–	–	–	–	–	–	–	–	435.8	424.6	Area under the dose-response curve (AUC) UISO Replicate 3 (UISO cells (VN-MCC); [3]): 430.2; Area under the dose-response curve (AUC) MKL-1 Replicate 1 (MKL-1 cells (VP-MCC); [4]): 460.8; Area under the dose-response curve (AUC) MKL-1 Replicate 2 (MKL-1 cells (VP-MCC); [5]): 464.3; Area under the dose-response curve (AUC) MKL-1 Replicate 3 (MKL-1 cells (VP-MCC); [6]): 463.4; Area under the dose-response curve (AUC) MKL-2 Replicate 1 (MKL-2 cells (VP-MCC); [7]): 463.7; Area under the dose-response curve (AUC) MKL-2 Replicate 2 (MKL-2 cells (VP-MCC); [8]): 433.6; Area under the dose-response curve (AUC) MKL-2 Replicate 3 (MKL-2 cells (VP-MCC); [9]): 459.9; Area under the dose-response curve (AUC) MCC26 Replicate 1 (MCC26 cells (VN-MCC); [10]): 450.8; Area under the dose-response curve (AUC) MCC26 Replicate 2 (MCC26 cells (VN-MCC); [11]): 439.4; Area under the dose-response curve (AUC) MCC26 Replicate 3 (MCC26 cells (VN-MCC); [12]): 478.6; Area under the dose-response curve (AUC) MCC13 Replicate 1 (MCC13 cells (VN-MCC); [13]): 471.2; Area under the dose-response curve (AUC) MCC13 Replicate 2 (MCC13 cells (VN-MCC); [14]): 476.6; Area under the dose-response curve (AUC) MCC13 Replicate 3 (MCC13 cells (VN-MCC); [15]): 471.3; Area under the dose-response curve (AUC) WAGA Replicate 1 (WAGA cells (VP-MCC); [16]): 480.8; Area under the dose-response curve (AUC) WAGA Replicate 2 (WAGA cells (VP-MCC); [17]): 429.3; Area under the dose-response curve (AUC) WAGA Replicate 3 (WAGA cells (VP-MCC); [18]): 424.9
COc1ccc2c(c[n+](C)c3c4cc5c(cc4ccc23)OCO5)c1OC [Chelerythrine chloride]	–	–	–	–	–	–	–	–	–	–	–	–	–	–	–	–	–	–	417.2	419.6	Area under the dose-response curve (AUC) UISO Replicate 3 (UISO cells (VN-MCC); [3]): 390.8; Area under the dose-response curve (AUC) MKL-1 Replicate 1 (MKL-1 cells (VP-MCC); [4]): 325.9; Area under the dose-response curve (AUC) MKL-1 Replicate 2 (MKL-1 cells (VP-MCC); [5]): 295.9; Area under the dose-response curve (AUC) MKL-1 Replicate 3 (MKL-1 cells (VP-MCC); [6]): 331.6; Area under the dose-response curve (AUC) MKL-2 Replicate 1 (MKL-2 cells (VP-MCC); [7]): 317.6; Area under the dose-response curve (AUC) MKL-2 Replicate 2 (MKL-2 cells (VP-MCC); [8]): 350.5; Area under the dose-response curve (AUC) MKL-2 Replicate 3 (MKL-2 cells (VP-MCC); [9]): 338.8; Area under the dose-response curve (AUC) MCC26 Replicate 1 (MCC26 cells (VN-MCC); [10]): 384.2; Area under the dose-response curve (AUC) MCC26 Replicate 2 (MCC26 cells (VN-MCC); [11]): 379.8; Area under the dose-response curve (AUC) MCC26 Replicate 3 (MCC26 cells (VN-MCC); [12]): 390.1; Area under the dose-response curve (AUC) MCC13 Replicate 1 (MCC13 cells (VN-MCC); [13]): 404.1; Area under the dose-response curve (AUC) MCC13 Replicate 2 (MCC13 cells (VN-MCC); [14]): 410.9; Area under the dose-response curve (AUC) MCC13 Replicate 3 (MCC13 cells (VN-MCC); [15]): 433.8; Area under the dose-response curve (AUC) WAGA Replicate 1 (WAGA cells (VP-MCC); [16]): 387.5; Area under the dose-response curve (AUC) WAGA Replicate 2 (WAGA cells (VP-MCC); [17]): 415.9; Area under the dose-response curve (AUC) WAGA Replicate 3 (WAGA cells (VP-MCC); [18]): 372.6
CCCCCCCCC(=O)NCc1ccc(O)c(OC)c1 [Nonivamide]	479.2	501.4	453.6	491.5	481.8	491.3	520.2	501.6	494.8	453.4	445.4	466.4	513.1	478.1	523.7	544.9	499.1	488.2	–	–	–
CCC(=O)NC[C@H](Cc1ccc(OCCc2nc(-c3ccccc3)oc2C)cc1)N/C(C)=C\C(=O)c1ccc(C(F)(F)F)cc1 [GW-6471]	430.2	426.3	403.1	475.3	443.7	500.6	432.8	489.1	475.3	466.5	438.7	475.7	508.4	489.8	459.0	517.9	512.0	484.1	–	–	–
